The text below walks through data of patent US8076487B2, “Pyridone derivative and herbicide” (Kumiai Chemical Industry Co., Ltd., priority 2006, dated 2011).

What all share (assay type): in vivo
For assay [1], the system named is Japanese bulrush (Scirpus juncoides Roxb.). Kind of assay: Test Example 1: herbicidal effect by soil application to paddy field. To be noted: paddy field soil application; active ingredient 1,000 g per 1 hectare; wettable powder added dropwise to water surface the day after sowing; examined on the 21st day after application. The essentials:
(§1)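 Under greenhouse conditions, seeds sown on puddled paddy soil in 100 cm2 pots under 3 cm of standing water received the test compound; injury was assessed with a standard scoring scheme three weeks (day 21) after treatment.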

In assay [2] the test system is early watergrass (Echinochloa oryzicola Vasing). The description is as above. Conditions: paddy field soil application; active ingredient 1,000 g per 1 hectare; wettable powder added dropwise to water surface the day after sowing; examined on the 21st day after application. The essentials:
as §1

Assay [3] deals with heartshape false pickerelweed (Monochoria vaginalis (Burm.f.) C.Presl). Described as above. To be noted: paddy field soil application; active ingredient 1,000 g per 1 hectare; wettable powder added dropwise to water surface the day after sowing; examined on the 21st day after application. The essentials: as §1
Assay [4] has as its system barnyardgrass (Echinochloa crus-galli (L.) P. Beauv. var. crus-galli). Kind of assay: Test Example 2: herbicidal effect by soil application to upland field. To be noted: soil surface spray, upland field soil, 1,000 g active ingredient per hectare, 21st day after application. The essentials: (§2)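 Using a small sprayer, we treat the soil surface of pots just after sowing and covering seeds. The aqueous wettable powder supplies 1,000 g a.i./ha in 1,000 L water/ha; after greenhouse growth, injury is scored on day 21 using a standard rating.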

Assay [5] concerns green foxtail (Setaria viridis (L.) P. Beauv.). The description is as above. To be noted: soil surface spray, upland field soil, 1,000 g active ingredient per hectare, 21st day after application. In short, it runs like this:
as §2

Assay [6] relates to slender amaranth (Amaranthus viridis L.). The description is as above. Conditions: soil surface spray, upland field soil, 1,000 g active ingredient per hectare, 21st day after application. In short, it runs like this:
as §2

The test system of assay [7] is velvetleaf (Abutilon theophrasti medicus). Described as above. Conditions: soil surface spray, upland field soil, 1,000 g active ingredient per hectare, 21st day after application. In short, it runs like this: as §2
Assay [8] relates to barnyardgrass (Echinochloa crus-galli (L.) P. Beauv. var. crus-galli). Kind of assay: Test Example 3: herbicidal effect by application to upland field (foliage treatment). To be noted: 14th day after application; for herbicidal effect (index), Barnyardgrass: foliage treatment, plants grown two weeks, 1,000 g active ingredient per hectare; for herbicidal effect, Barnyardgrass: foliage treatment, 1,000 g active ingredient per 1 hectare, greenhouse. In short, it runs like this:
(§3)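 Read-out is a visual herbicidal-effect grade on a standard scale, taken on the 14th day after a single foliar spray. The spray was wettable powder diluted in water, 1,000 g active ingredient/ha at 1,000 L/ha, applied to greenhouse plants two weeks after sowing.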

Assay [9] has as its system green foxtail (Setaria viridis (L.) P. Beauv.). The description is as above. To be noted: 14th day after application; for herbicidal effect (index), Green Foxtail: foliage treatment, plants grown two weeks, 1,000 g active ingredient per hectare; for herbicidal effect, Green Foxtail: foliage treatment, 1,000 g active ingredient per 1 hectare, greenhouse. In short, it runs like this: as §3

Assay [10] has as its system slender amaranth (Amaranthus viridis L.). The description is as above. To be noted: 14th day after application; for herbicidal effect (index), Slender Amaranth: foliage treatment, plants grown two weeks, 1,000 g active ingredient per hectare; for herbicidal effect, Slender Amaranth: foliage treatment, 1,000 g active ingredient per 1 hectare, greenhouse. In short, it runs like this: as §3

Assay [11] deals with velvetleaf (Abutilon theophrasti medicus). The assay is described as above. To be noted: 14th day after application; for herbicidal effect (index), Velvetleaf: foliage treatment, plants grown two weeks, 1,000 g active ingredient per hectare; for herbicidal effect, Velvetleaf: foliage treatment, 1,000 g active ingredient per 1 hectare, greenhouse. The essentials: as §3

Regarding `O=C1CCCC(O)=C1C(=O)c1ccc(C(F)(F)F)n(-c2ccc([N+](=O)[O-])cc2)c1=O` [I-88], in [1], the “herbicidal effect, Scirpus juncoides Roxb.” value is 5 (90% or more of herbicidal effect and crop phytotoxicity). Besides, in [2], the “herbicidal effect, Echinochloa oryzicola Vasing” value is 5 (90% or more of herbicidal effect and crop phytotoxicity). Also, the “herbicidal effect, Monochoria vaginalis (Burm. f.) C. Presl” value (“herbicidal effect, Monochoria vaginalis” below) in assay [3] is 5 (90% or more of herbicidal effect and crop phytotoxicity). Further, the “herbicidal effect (index), Barnyardgrass” value is 5 (90% or more of herbicidal effect and crop phytotoxicity) in assay [4]; 5 (90% or more of herbicidal effect and crop phytotoxicity) in [8]. In addition, the “herbicidal effect (index), Green Foxtail” value in assay [5] is 5 (90% or more of herbicidal effect and crop phytotoxicity); in assay [9] it was 5 (90% or more of herbicidal effect and crop phytotoxicity). For the same molecule, the “herbicidal effect (index), Slender Amaranth” value in assay [6] was 5 (90% or more of herbicidal effect and crop phytotoxicity); in assay [10], 5 (90% or more of herbicidal effect and crop phytotoxicity). Moreover, the “herbicidal effect (index), Velvetleaf” value in assay [7] was 5 (90% or more of herbicidal effect and crop phytotoxicity); in assay [11], 5 (90% or more of herbicidal effect and crop phytotoxicity).
Regarding `COc1ccc(-n2c(C(F)(F)F)ccc(C(=O)C3=C(O)CCCC3=O)c2=O)cc1OC` [I-100], in assay [1], the “herbicidal effect, Scirpus juncoides Roxb.” value is 5 (90% or more of herbicidal effect and crop phytotoxicity). Further, the “herbicidal effect, Echinochloa oryzicola Vasing” value in assay [2] was 5 (90% or more of herbicidal effect and crop phytotoxicity). Moreover, in [3], the “herbicidal effect, Monochoria vaginalis” value was 5 (90% or more of herbicidal effect and crop phytotoxicity). Also, the “herbicidal effect (index), Barnyardgrass” value in assay [4] was 5 (90% or more of herbicidal effect and crop phytotoxicity); in [8] it was 5 (90% or more of herbicidal effect and crop phytotoxicity). Also, the “herbicidal effect (index), Green Foxtail” value in assay [5] was 4 (70 to less than 90% of herbicidal effect and crop phytotoxicity); in [9], 4 (70 to less than 90% of herbicidal effect and crop phytotoxicity). Besides, the “herbicidal effect (index), Slender Amaranth” value was 5 (90% or more of herbicidal effect and crop phytotoxicity) in assay [6]; 5 (90% or more of herbicidal effect and crop phytotoxicity) in assay [10]. Also, the “herbicidal effect (index), Velvetleaf” value in [7] was 5 (90% or more of herbicidal effect and crop phytotoxicity); in [11], 5 (90% or more of herbicidal effect and crop phytotoxicity).
Turning to `CCCNn1c(C(F)(F)F)ccc(C(=O)C2=C(O)CCCC2=O)c1=O` [I-159], the “herbicidal effect, Scirpus juncoides Roxb.” value in [1] was 5 (90% or more of herbicidal effect and crop phytotoxicity). In assay [2], the “herbicidal effect, Echinochloa oryzicola Vasing” value was 5 (90% or more of herbicidal effect and crop phytotoxicity). In addition, the “herbicidal effect, Monochoria vaginalis” value in [3] is 5 (90% or more of herbicidal effect and crop phytotoxicity). Further, the “herbicidal effect (index), Barnyardgrass” value in [4] is 5 (90% or more of herbicidal effect and crop phytotoxicity). Further, in assay [5], the “herbicidal effect (index), Green Foxtail” value is 5 (90% or more of herbicidal effect and crop phytotoxicity). Moreover, the “herbicidal effect (index), Slender Amaranth” value in [6] was 5 (90% or more of herbicidal effect and crop phytotoxicity). Also, the “herbicidal effect (index), Velvetleaf” value in assay [7] was 5 (90% or more of herbicidal effect and crop phytotoxicity). For the same molecule, the “herbicidal effect, Barnyardgrass” value in assay [8] is 5 (90% or more of herbicidal effect and crop phytotoxicity). In addition, in [9], the “herbicidal effect, Green Foxtail” value is 5 (90% or more of herbicidal effect and crop phytotoxicity). Further, the “herbicidal effect, Slender Amaranth” value in assay [10] was 5 (90% or more of herbicidal effect and crop phytotoxicity). In addition, the “herbicidal effect, Velvetleaf” value in assay [11] was 5 (90% or more of herbicidal effect and crop phytotoxicity).
With `COCCn1c(C(F)(F)F)ccc(C(=O)C2=C(O)C3CCC(C3)C2=O)c1=O` (centres unmarked) [III-19], the “herbicidal effect, Scirpus juncoides Roxb.” value in assay [1] was 5 (90% or more of herbicidal effect and crop phytotoxicity). For the same molecule, the “herbicidal effect, Echinochloa oryzicola Vasing” value in [2] is 5 (90% or more of herbicidal effect and crop phytotoxicity). The “herbicidal effect, Monochoria vaginalis” value in assay [3] is 5 (90% or more of herbicidal effect and crop phytotoxicity). For the same molecule, in [4], the “herbicidal effect (index), Barnyardgrass” value is 5 (90% or more of herbicidal effect and crop phytotoxicity). Also, in [5], the “herbicidal effect (index), Green Foxtail” value is 5 (90% or more of herbicidal effect and crop phytotoxicity). In [6], the “herbicidal effect (index), Slender Amaranth” value is 5 (90% or more of herbicidal effect and crop phytotoxicity). Also, the “herbicidal effect (index), Velvetleaf” value in assay [7] is 5 (90% or more of herbicidal effect and crop phytotoxicity). In assay [8], the “herbicidal effect, Barnyardgrass” value was 5 (90% or more of herbicidal effect and crop phytotoxicity). Also, in [9], the “herbicidal effect, Green Foxtail” value is 5 (90% or more of herbicidal effect and crop phytotoxicity). In assay [10], the “herbicidal effect, Slender Amaranth” value is 5 (90% or more of herbicidal effect and crop phytotoxicity). Moreover, in [11], the “herbicidal effect, Velvetleaf” value is 5 (90% or more of herbicidal effect and crop phytotoxicity).
With `O=C1CCCC(O)=C1C(=O)c1ccc(C(F)(F)F)n(-c2ccc(F)cc2F)c1=O` [I-102], the “herbicidal effect, Scirpus juncoides Roxb.” value in assay [1] is 5 (90% or more of herbicidal effect and crop phytotoxicity). In addition, the “herbicidal effect, Echinochloa oryzicola Vasing” value in assay [2] was 5 (90% or more of herbicidal effect and crop phytotoxicity). The “herbicidal effect, Monochoria vaginalis” value in assay [3] is 5 (90% or more of herbicidal effect and crop phytotoxicity). In addition, the “herbicidal effect (index), Barnyardgrass” value is 5 (90% or more of herbicidal effect and crop phytotoxicity) in [4]; 5 (90% or more of herbicidal effect and crop phytotoxicity) in assay [8]. Also, the “herbicidal effect (index), Green Foxtail” value in assay [5] is 5 (90% or more of herbicidal effect and crop phytotoxicity); in assay [9], 5 (90% or more of herbicidal effect and crop phytotoxicity). Also, the “herbicidal effect (index), Slender Amaranth” value is 5 (90% or more of herbicidal effect and crop phytotoxicity) in assay [6]; 5 (90% or more of herbicidal effect and crop phytotoxicity) in assay [10]. For the same molecule, the “herbicidal effect (index), Velvetleaf” value was 5 (90% or more of herbicidal effect and crop phytotoxicity) in [7]; 5 (90% or more of herbicidal effect and crop phytotoxicity) in assay [11].
On to `CC1CC(C)(C)C(O)=C(C(=O)c2ccc(C(F)(F)F)n(C)c2=O)C1=O` (centres unmarked) [II-5], for which the “herbicidal effect, Scirpus juncoides Roxb.” value in assay [1] was 5 (90% or more of herbicidal effect and crop phytotoxicity). The “herbicidal effect, Echinochloa oryzicola Vasing” value in assay [2] is 5 (90% or more of herbicidal effect and crop phytotoxicity). Moreover, the “herbicidal effect, Monochoria vaginalis” value in assay [3] was 5 (90% or more of herbicidal effect and crop phytotoxicity). In assay [4], the “herbicidal effect (index), Barnyardgrass” value is 5 (90% or more of herbicidal effect and crop phytotoxicity). Besides, the “herbicidal effect (index), Green Foxtail” value in [5] is 5 (90% or more of herbicidal effect and crop phytotoxicity). For the same molecule, in assay [6], the “herbicidal effect (index), Slender Amaranth” value is 5 (90% or more of herbicidal effect and crop phytotoxicity). Besides, the “herbicidal effect (index), Velvetleaf” value in [7] is 5 (90% or more of herbicidal effect and crop phytotoxicity). The “herbicidal effect, Barnyardgrass” value in assay [8] is 4 (70 to less than 90% of herbicidal effect and crop phytotoxicity). Also, in [9], the “herbicidal effect, Green Foxtail” value was 3 (50 to less than 70% of herbicidal effect and crop phytotoxicity). In addition, the “herbicidal effect, Slender Amaranth” value in assay [10] is 4 (70 to less than 90% of herbicidal effect and crop phytotoxicity). The “herbicidal effect, Velvetleaf” value in [11] is 5 (90% or more of herbicidal effect and crop phytotoxicity).
Turning to `O=C1CCCC(O)=C1C(=O)c1ccc(C(F)(F)F)n(CCC=C(Cl)Cl)c1=O` [I-26], the “herbicidal effect, Scirpus juncoides Roxb.” value in [1] was 5 (90% or more of herbicidal effect and crop phytotoxicity). The “herbicidal effect, Echinochloa oryzicola Vasing” value in [2] is 5 (90% or more of herbicidal effect and crop phytotoxicity). Also, in assay [3], the “herbicidal effect, Monochoria vaginalis” value is 5 (90% or more of herbicidal effect and crop phytotoxicity). In addition, the “herbicidal effect (index), Barnyardgrass” value in assay [4] was 5 (90% or more of herbicidal effect and crop phytotoxicity); in [8], 4 (70 to less than 90% of herbicidal effect and crop phytotoxicity). The “herbicidal effect (index), Green Foxtail” value in [5] was 5 (90% or more of herbicidal effect and crop phytotoxicity); in assay [9] it was 4 (70 to less than 90% of herbicidal effect and crop phytotoxicity). Also, the “herbicidal effect (index), Slender Amaranth” value in [6] was 5 (90% or more of herbicidal effect and crop phytotoxicity); in assay [10], 5 (90% or more of herbicidal effect and crop phytotoxicity). Besides, the “herbicidal effect (index), Velvetleaf” value is 5 (90% or more of herbicidal effect and crop phytotoxicity) in assay [7]; 5 (90% or more of herbicidal effect and crop phytotoxicity) in assay [11].
